# Assay results as given in PubChem BioAssay (NCI).
# Where “and” joins values, the source holds several entries; their conditions need not be identical. Identical values can stand only once.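 Exposure lasted 48 hours, with cells grown in 96-well plates and compounds tested at five concentrations. Here, GI50 denotes the concentration required for 50% inhibition of growth. TGI is the concentration that stops growth completely.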
# Key:
# Experiment in all cases: NCI tumour cell line growth inhibition, 48 h
# T-47D breast = system: T-47D breast
# OVCAR-8 ovarian = system: OVCAR-8 ovarian
# SW-620 colon = system: SW-620 colon
# UACC-62 melanoma = system: UACC-62 melanoma
# M14 melanoma = system: M14 melanoma
# MCF7 breast = system: MCF7 breast
# SK-MEL-28 melanoma = system: SK-MEL-28 melanoma
# DU-145 prostate = system: DU-145 prostate
# A549 NSCLC = system: A549 NSCLC
# RXF 393 renal = system: RXF 393 renal
# SF-295 CNS = system: SF-295 CNS
Compound,TGI (T-47D breast) [µM],TGI (OVCAR-8 ovarian) [µM],TGI (SW-620 colon) [µM],TGI (UACC-62 melanoma) [µM],TGI (M14 melanoma) [µM],TGI (MCF7 breast) [µM],TGI (SK-MEL-28 melanoma) [µM],GI50 (DU-145 prostate) [µM],TGI (DU-145 prostate) [µM],TGI (A549 NSCLC) [µM],GI50 (RXF 393 renal),TGI (RXF 393 renal) [µM],TGI (SF-295 CNS) [µM]
CC(=O)OC1COC(n2c(N)c(C#N)c(C)c(C#N)c2=S)C(OC(C)=O)C1OC(C)=O (stereo not drawn),> 100,> 100,> 100,> 100,> 100,> 100,> 100,> 100,> 100,> 100,17.4 µM and 59.8 µM,> 100,> 100
CCOC(=O)n1cncc1CC(NC(=O)Cc1c(C(=O)C=C(C)C)[nH]c2ccccc12)C(=O)OC (stereo not drawn),7.46,40.2,> 100,36.3,33.3,84.1,32.8,,35.9,45.3,,28.5,35.5
O=C1CCCC2=C1CC1=C(CCCC1=O)N2c1cccc2ccccc12,,> 100,> 100,> 100,> 100,> 100,> 100,,,> 100,,54.4,
CC(C)/C=N\n1c(N)c(C#N)c(C#N)c1C(C)C,66.3,63.7,> 100,34.7,> 100,> 100,,,> 100,> 100,,> 100,73.7
C[Si](C)(C)OC1c2[nH]c3ccccc3c2CN2C(=O)CCC12 (stereo not drawn),> 100,> 100,> 100,> 100,> 100,> 100,> 100,,> 100,> 100,,,
C[C@]12CC(c3ccccc3O1)C(C(=O)NC13CC4CC(CC(C4)C1)C3)C(=O)N2 (stereo partly drawn),,93.2,> 100,> 100,35.9,> 100,64,,> 100,71.7,,57.6,> 100
N=C1C(=N)c2ccccc2-c2ccccc21,1.57,,,2.78,2.36,2.27,3.35,,2.82,3.66,,3.23,2.98
CC(=O)Nc1ccc2c(C)c3c4ccccc4n(C)c3nc2n1,> 100,> 100,46.6,69,52.3,96.7,,,90.4,59.8,,34.6,53.4
COc1cc2[nH]c(-c3cccc(N(C)C)c3)cc(=O)c2cc1OC,,> 100,> 100,> 100,> 100,,> 100,,,> 100,,,> 21.4
COC12C=CC(CC1)C1C(=O)c3c(C)c(C)n(C)c3C(=O)C12 (stereo not drawn),> 100,> 100,> 100,> 100,> 100,> 100,,,> 100,,,> 100,> 100
COC1OC(CO)C(O)C(OC(=O)c2cc(O)c(O)c(O)c2)C1OC(=O)c1cc(O)c(O)c(O)c1 (stereo not drawn),,> 100,> 100,,> 100,> 100,> 100,,> 100,> 100,,> 100,42.1
CC1(C)OCC(C2OC(N3O[C@H](CI)C[C@@H]3c3ccccc3)C3OC(C)(C)OC23)O1 (stereo partly drawn),> 100,,> 100,> 100,> 100,> 100,> 100,,> 100,> 100,,> 100,> 100
CCOC(=O)c1nc2ccc(C(F)(F)F)cc2nc1Oc1ccc(F)cc1,> 100,> 100,> 100,> 100,> 100,> 100,> 100,,> 100,,,> 100,> 100
COc1ccc2c3ccc4c(c3n(C)c2c1)C(=O)c1ccccc1C4=O,,> 100,> 100,> 100,> 100,,> 100,,,> 100,,> 100,> 100
O=c1cc(-c2cccc(OC(F)(F)F)c2)[nH]c2cc3c(cc12)OCO3,> 100,> 52.2,> 100,,> 35.7,> 100,> 100,,> 100,> 100,,> 89.4,
Cc1c2c(n(CCc3ccccc3)c1C)NN=C(C#N)S2(=O)=O,> 100,> 100,> 100,> 100,> 100,> 100,> 100,,> 100,> 100,,,
CC1=NN(C(=O)Cc2ccccc2)C(=O)/C1=C\C=C\c1ccccc1,,> 100,> 100,,> 100,,> 100,,,> 100,,,> 100
Cc1cc2oc(=O)[nH]c(=S)c2c(C)c1C,,> 100,> 100,> 100,> 100,,> 100,,,> 100,,> 100,> 100
COc1ccc(C2C(Cl)C(=O)N2NC(=O)Cc2ccccc2)cc1 (stereo not drawn),,> 100,> 100,> 100,> 100,,> 100,,,> 100,,> 100,> 100
C=C[C@@]1(C)CC(=O)[C@]2(O)[C@@]3(C)[C@@H](OC(C)=O)CCC(C)(C)[C@@H]3[C@H](OC(C)=O)[C@H](OC(C)=O)[C@@]2(C)O1,> 100,> 100,> 100,> 100,> 100,> 100,> 100,,> 100,> 100,,,> 100
Cc1sc2nc3n(c(=O)c2c1C)N=C(c1ccc(Cl)cc1)CS3,> 100,> 100,> 100,> 100,,> 100,> 100,,> 100,> 100,,> 100,> 100
